Test results as given in US20210045385A1, “PYRIDAZINONE-SUBSTITUTED KETOXIMES AS HERBICIDES” (FMC Corporation, priority 2018, published 2021).

Columns and labels:
Type in all cases: in vivo
[1] = tested on: ragweed (common ragweed, Ambrosia elatior); assay: Test A postemergence, visual plant response rating; conditions: for Ragweed plant response rating (0 to 100 scale): 500 g ai/ha, postemergence, 0 is no effect, 100 is complete control; for Ragweed plant response rating: Postemergence, 125 g ai/ha, 0 to 100 scale (0 no effect, 100 complete control)
Outline: (§1)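 Ratings use a 0–100 visual scale (100 = complete control) against untreated controls, scored about 10 days after greenhouse treatment. Test chemicals were formulated in surfactant-containing non-phytotoxic solvent and applied either as soil spray after planting (preemergence) or onto one- to two-leaf, 2–10 cm plants (postemergence).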

[2] = tested on: galium (catchweed bedstraw, Galium aparine); assay: Test A postemergence, visual plant response rating; conditions: for Galium plant response rating (0 to 100 scale): 500 g ai/ha, postemergence, 0 is no effect, 100 is complete control; for Galium plant response rating: Postemergence, 125 g ai/ha, 0 to 100 scale (0 no effect, 100 complete control)
Outline: as §1

[3] = tested on: barnyardgrass (Echinochloa crus-galli); assay: Test A postemergence, visual plant response rating; conditions: for Barnyardgrass plant response rating (0 to 100 scale): 500 g ai/ha, postemergence, 0 is no effect, 100 is complete control; for Barnyardgrass plant response rating: Postemergence, 125 g ai/ha, 0 to 100 scale (0 no effect, 100 complete control)
Outline: as §1

corn (Zea mays) = assay: Test A postemergence, visual plant response rating; conditions: for Corn plant response rating (0 to 100 scale): 500 g ai/ha, postemergence, 0 is no effect, 100 is complete control; for Corn plant response rating: Postemergence, 125 g ai/ha, 0 to 100 scale (0 no effect, 100 complete control)
Outline: as §1

[4] = tested on: pigweed (Amaranthus retroflexus); assay: Test A postemergence, visual plant response rating; conditions: for Pigweed plant response rating (0 to 100 scale): 500 g ai/ha, postemergence, 0 is no effect, 100 is complete control; for Pigweed plant response rating: Postemergence, 125 g ai/ha, 0 to 100 scale (0 no effect, 100 complete control)
Outline: as §1

kochia (Kochia scoparia) [5] = assay: Test A postemergence, visual plant response rating; conditions: for Kochia plant response rating (0 to 100 scale): 500 g ai/ha, postemergence, 0 is no effect, 100 is complete control; for Kochia plant response rating: Postemergence, 125 g ai/ha, 0 to 100 scale (0 no effect, 100 complete control)
Outline: as §1

[6] = tested on: blackgrass (Alopecurus myosuroides); assay: Test A postemergence, visual plant response rating; conditions: for Blackgrass plant response rating (0 to 100 scale): 500 g ai/ha, postemergence, 0 is no effect, 100 is complete control; for Blackgrass plant response rating: Postemergence, 125 g ai/ha, 0 to 100 scale (0 no effect, 100 complete control)
Outline: as §1

[7] = tested on: foxtail, giant (giant foxtail, Setaria faberii); assay: Test A postemergence, visual plant response rating; conditions: for Foxtail, Giant plant response rating (0 to 100 scale): 500 g ai/ha, postemergence, 0 is no effect, 100 is complete control; for Foxtail, Giant plant response rating: Postemergence, 125 g ai/ha, 0 to 100 scale (0 no effect, 100 complete control)
Outline: as §1

[8] = tested on: wheat (Triticum aestivum); assay: Test A postemergence, visual plant response rating; conditions: for Wheat plant response rating (0 to 100 scale): 500 g ai/ha, postemergence, 0 is no effect, 100 is complete control; for Wheat plant response rating: Postemergence, 125 g ai/ha, 0 to 100 scale (0 no effect, 100 complete control)
Outline: as §1

[9] = tested on: Italian ryegrass (Lolium multiflorum); assay: Test A postemergence, visual plant response rating; conditions: for Ryegrass, Italian plant response rating (0 to 100 scale): 500 g ai/ha, postemergence, 0 is no effect, 100 is complete control; for Ryegrass, Italian plant response rating: Postemergence, 125 g ai/ha, 0 to 100 scale (0 no effect, 100 complete control)
Outline: as §1

[10] = tested on: ragweed (common ragweed, Ambrosia elatior); assay: Test A preemergence, visual plant response rating; conditions: for Ragweed plant response rating: 125 g ai/ha, preemergence, 0 to 100 scale, 0 no effect, 100 complete control; for Ragweed plant response rating (0 to 100 scale): 500 g ai/ha Preemergence, approx. 10 days
Outline: as §1

[11] = tested on: barnyardgrass (Echinochloa crus-galli); assay: Test A preemergence, visual plant response rating; conditions: for Barnyardgrass plant response rating: 125 g ai/ha, preemergence, 0 to 100 scale, 0 no effect, 100 complete control; for Barnyardgrass plant response rating (0 to 100 scale): 500 g ai/ha Preemergence, approx. 10 days
Outline: as §1

[12] = tested on: pigweed (Amaranthus retroflexus); assay: Test A preemergence, visual plant response rating; conditions: for Pigweed plant response rating: 125 g ai/ha, preemergence, 0 to 100 scale, 0 no effect, 100 complete control; for Pigweed plant response rating (0 to 100 scale): 500 g ai/ha Preemergence, approx. 10 days
Outline: as §1

kochia (Kochia scoparia) [13] = assay: Test A preemergence, visual plant response rating; conditions: for Kochia plant response rating: 125 g ai/ha, preemergence, 0 to 100 scale, 0 no effect, 100 complete control; for Kochia plant response rating (0 to 100 scale): 500 g ai/ha Preemergence, approx. 10 days
Outline: as §1

[14] = tested on: foxtail, giant (giant foxtail, Setaria faberii); assay: Test A preemergence, visual plant response rating; conditions: for Foxtail, Giant plant response rating: 125 g ai/ha, preemergence, 0 to 100 scale, 0 no effect, 100 complete control; for Foxtail, Giant plant response rating (0 to 100 scale): 500 g ai/ha Preemergence, approx. 10 days
Outline: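 Preemergence: seeds in loam/sand blend given directed soil spray of compound in non-phytotoxic solvent with surfactant. Postemergence: plants 2–10 cm, one- to two-leaf stage, sprayed with same formulation. Visual injury rated vs untreated controls after ~10 days in greenhouse, 0 (no effect) to 100 (complete control).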

[15] = tested on: Italian ryegrass (Lolium multiflorum); assay: Test A preemergence, visual plant response rating; conditions: for Ryegrass, Italian plant response rating: 125 g ai/ha, preemergence, 0 to 100 scale, 0 no effect, 100 complete control; for Ryegrass, Italian plant response rating (0 to 100 scale): 500 g ai/ha Preemergence, approx. 10 days
Outline: as §1

[16] = tested on: ducksalad (Heteranhera limosa); assay: Test B flooded paddy test, visual plant response rating; conditions: 250 g ai/ha, Flood, applied to paddy water, 2-leaf stage, evaluated after 13 to 15 days
Outline: (§2)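 Visual scores compare treated plants with controls after 13 to 15 days of greenhouse growth. Treatment was made into paddy water standing 3 cm above the soil, with plants at the 2-leaf stage and flooding maintained throughout.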

[17] = tested on: barnyardgrass (Echinochloa crus-galli); assay: as above; conditions: 250 g ai/ha, Flood, applied to paddy water, 2-leaf stage, evaluated after 13 to 15 days
Outline: as §2

rice (Oryza sativa) = assay: as above; conditions: 250 g ai/ha, Flood, applied to paddy water, 2-leaf stage, evaluated after 13 to 15 days
Outline: as §2

[18] = tested on: sedge, umbrella (small-flower umbrella sedge, Cyperus difformis); assay: as above; conditions: 250 g ai/ha, Flood, applied to paddy water, 2-leaf stage, evaluated after 13 to 15 days
Outline: as §2

Row | Compound | Ragweed plant response rating (0 to 100 scale) [1] | Ragweed plant response rating [1] | Galium plant response rating (0 to 100 scale) [2] | Galium plant response rating [2] | Barnyardgrass plant response rating (0 to 100 scale) [3] | Barnyardgrass plant response rating [3] | Corn plant response rating (0 to 100 scale) (corn (Zea mays)) | Corn plant response rating (corn (Zea mays)) | Pigweed plant response rating (0 to 100 scale) [4] | Pigweed plant response rating [4] | Kochia plant response rating (0 to 100 scale) (kochia (Kochia scoparia) [5]) | Kochia plant response rating (kochia (Kochia scoparia) [5]) | Blackgrass plant response rating (0 to 100 scale) [6] | Blackgrass plant response rating [6] | Foxtail, Giant plant response rating (0 to 100 scale) [7] | Foxtail, Giant plant response rating [7] | Wheat plant response rating (0 to 100 scale) [8] | Wheat plant response rating [8] | Ryegrass, Italian plant response rating (0 to 100 scale) [9] | Ryegrass, Italian plant response rating [9] | further results
1 | CO/N=C(\c1ccc(F)cc1C)c1c(O)c(C)nn(C)c1=O [Compound 72] | 70 | 40 | 70 | 70 | 0 | 0 | 20 | 0 | 80 | 30 | 60 | 20 | 0 | 20 | 10 | 0 | 20 | 0 | 40 | 0 | Ragweed plant response rating [10]: 0; Ragweed plant response rating (0 to 100 scale) [10]: 20; Barnyardgrass plant response rating [11]: 0; Barnyardgrass plant response rating (0 to 100 scale) [11]: 0; Pigweed plant response rating [12]: 0; Pigweed plant response rating (0 to 100 scale) [12]: 20; Kochia plant response rating (kochia (Kochia scoparia) [13]): 0; Kochia plant response rating (0 to 100 scale) (kochia (Kochia scoparia) [13]): 0; Foxtail, Giant plant response rating [14]: 0; Foxtail, Giant plant response rating (0 to 100 scale) [14]: 10; Ryegrass, Italian plant response rating [15]: 0; Ryegrass, Italian plant response rating (0 to 100 scale) [15]: 40; Plant response rating, Ducksalad (0 to 100 scale, 0 is no effect, 100 is complete control) [16]: 0; Plant response rating, Barnyardgrass (0 to 100 scale, 0 is no effect, 100 is complete control) [17]: 0; Plant response rating, Rice (0 to 100 scale, 0 is no effect, 100 is complete control) (rice (Oryza sativa)): 0; Plant response rating, Sedge, Umbrella (0 to 100 scale, 0 is no effect, 100 is complete control) [18]: 0
2 | CON=C(c1cc(C(F)(F)F)ccc1Cl)c1c(O)c(C)nn(C)c1=O [Compound 73] | 80 | 50 | 70 | 70 | 60 | 20 | 20 | 0 | 90 | 80 | 80 | 60 | 90 | 30 | 60 | 30 | 40 | 20 | 90 | 40 | Ragweed plant response rating [10]: 30; Ragweed plant response rating (0 to 100 scale) [10]: 90; Barnyardgrass plant response rating [11]: 20; Barnyardgrass plant response rating (0 to 100 scale) [11]: 80; Pigweed plant response rating [12]: 70; Pigweed plant response rating (0 to 100 scale) [12]: 100; Kochia plant response rating (kochia (Kochia scoparia) [13]): 0; Kochia plant response rating (0 to 100 scale) (kochia (Kochia scoparia) [13]): 20; Foxtail, Giant plant response rating [14]: 20; Foxtail, Giant plant response rating (0 to 100 scale) [14]: 80; Ryegrass, Italian plant response rating [15]: 20; Ryegrass, Italian plant response rating (0 to 100 scale) [15]: 50; Plant response rating, Ducksalad (0 to 100 scale, 0 is no effect, 100 is complete control) [16]: 0; Plant response rating, Barnyardgrass (0 to 100 scale, 0 is no effect, 100 is complete control) [17]: 0; Plant response rating, Rice (0 to 100 scale, 0 is no effect, 100 is complete control) (rice (Oryza sativa)): 0; Plant response rating, Sedge, Umbrella (0 to 100 scale, 0 is no effect, 100 is complete control) [18]: 0
3 | CO/N=C(\c1cccc(C#N)c1)c1c(O)c(C)nn(C)c1=O [Compound 74] | 20 | 0 | 50 | 10 | 0 | 0 | 0 | 0 | 30 | 20 | 30 | 0 | 20 | 0 | 0 | 0 | 0 | 0 | 20 | 10 | Ragweed plant response rating [10]: 0; Ragweed plant response rating (0 to 100 scale) [10]: 0; Barnyardgrass plant response rating [11]: 0; Barnyardgrass plant response rating (0 to 100 scale) [11]: 0; Pigweed plant response rating [12]: 0; Pigweed plant response rating (0 to 100 scale) [12]: 0; Kochia plant response rating (kochia (Kochia scoparia) [13]): 0; Kochia plant response rating (0 to 100 scale) (kochia (Kochia scoparia) [13]): 0; Foxtail, Giant plant response rating [14]: 0; Foxtail, Giant plant response rating (0 to 100 scale) [14]: 0; Ryegrass, Italian plant response rating [15]: 0; Ryegrass, Italian plant response rating (0 to 100 scale) [15]: 0; Plant response rating, Ducksalad (0 to 100 scale, 0 is no effect, 100 is complete control) [16]: 25; Plant response rating, Barnyardgrass (0 to 100 scale, 0 is no effect, 100 is complete control) [17]: 0; Plant response rating, Rice (0 to 100 scale, 0 is no effect, 100 is complete control) (rice (Oryza sativa)): 15; Plant response rating, Sedge, Umbrella (0 to 100 scale, 0 is no effect, 100 is complete control) [18]: 10
